The IC50 is the concentration needed to halve the response being measured. A higher IC50 goes with lower potency.

The assay is described as follows: Inhibitory concentration in CCR4-transfected murine pre-B L1.2 cells (chemotaxis assay).

On to `CCN(CC)CCCC(C)Nc1nccc(NCc2ccc(Cl)cc2Cl)n1` (stereo unspecified) [N*4*-(2,4-Dichloro-benzyl)-N*2*-(4-diethylamino-1-methyl-butyl)-pyrimidine-2,4-diamine], for which the IC50 turned out to be 5 µM.

The record behind these values is BindingDB's records for doi:10.1016/j.bmcl.2005.02.084 (Bristol-Myers Squibb Pharmaceutical Research Institute, 2005).
